Measured values from PubChem BioAssay (NCI).
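Growth conditions: 96-well plates. Treatment: test compound, 48 hours, 5 concentrations. Analysis: linear interpolation between bracketing concentrations; unreached endpoints set to highest concentration. GI50: concentration for 50% inhibition of growth. TGI: concentration producing complete growth inhibition.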

How the values were obtained:
Assay in all cases: growth of human tumour cells (NCI), 48 h
HCC-2998 colon = system: HCC-2998 colon
TK-10 renal = system: TK-10 renal
COLO 205 colon = system: COLO 205 colon
M14 melanoma = system: M14 melanoma
HOP-62 NSCLC = system: HOP-62 NSCLC
HT29 colon = system: HT29 colon
SR leukemia = system: SR leukemia
UACC-62 melanoma = system: UACC-62 melanoma
A498 renal = system: A498 renal
HS 578T breast = system: HS 578T breast

COc1ccc(C/C(=N/O)C(=O)NCCc2cc(Br)c(OCCCN(C)C)c(Br)c2)cc1Br
TGI (HCC-2998 colon): 28.5 µM
TGI (TK-10 renal): 59.8 µM
TGI (COLO 205 colon): 40.2 µM
TGI (M14 melanoma): 31.6 µM
TGI (HOP-62 NSCLC): 30 µM
TGI (HT29 colon): 19.1 µM

CN1C(=O)CCC1(O)C1C=CC=CC1 (stereo not drawn)
TGI (HCC-2998 colon): > 100 µM
TGI (SR leukemia): > 100 µM
TGI (TK-10 renal): > 100 µM
TGI (COLO 205 colon): > 100 µM
TGI (M14 melanoma): > 100 µM
TGI (UACC-62 melanoma): > 100 µM
TGI (HOP-62 NSCLC): > 100 µM
TGI (HT29 colon): > 100 µM

O=C1NC(Cc2ccc(O)cc2)C(=O)N2CCCC12 (stereo not drawn)
TGI (HCC-2998 colon): > 100 µM
TGI (SR leukemia): > 100 µM
TGI (A498 renal): > 100 µM
TGI (TK-10 renal): > 100 µM
TGI (COLO 205 colon): > 100 µM
TGI (M14 melanoma): > 100 µM
TGI (UACC-62 melanoma): > 100 µM
TGI (HOP-62 NSCLC): > 100 µM
TGI (HT29 colon): > 100 µM

Cn1c2c(c3ccccc31)CCN(CCCCN1CCCCC1)C2=O
TGI (A498 renal): > 100 µM
TGI (TK-10 renal): > 100 µM
TGI (COLO 205 colon): > 100 µM
TGI (M14 melanoma): > 100 µM
TGI (UACC-62 melanoma): 66 µM
TGI (HOP-62 NSCLC): > 100 µM
TGI (HT29 colon): > 100 µM

N#Cc1c(-c2ccc(Cl)c(Cl)c2)c(-c2ccc(Cl)c(Cl)c2)nn(CC(=O)O)c1=O
TGI (HCC-2998 colon): > 100 µM
TGI (TK-10 renal): > 100 µM
TGI (COLO 205 colon): > 100 µM
TGI (M14 melanoma): > 100 µM
TGI (UACC-62 melanoma): > 100 µM
TGI (HOP-62 NSCLC): > 100 µM
TGI (HT29 colon): > 100 µM

Cn1cc(C(=O)c2ccccc2)c2ccccc2c1=O
TGI (HCC-2998 colon): > 100 µM
TGI (SR leukemia): > 100 µM
TGI (TK-10 renal): > 100 µM
TGI (COLO 205 colon): > 100 µM
TGI (M14 melanoma): > 100 µM
TGI (UACC-62 melanoma): > 100 µM
TGI (HOP-62 NSCLC): 71.8 µM
TGI (HT29 colon): > 100 µM

COc1ccc(NC(=O)C(=O)c2c(O)c3ccc(O)cc3oc2=O)c([N+](=O)[O-])c1
TGI (HCC-2998 colon): > 100 µM
TGI (A498 renal): > 100 µM
TGI (TK-10 renal): > 100 µM
TGI (COLO 205 colon): > 100 µM
TGI (M14 melanoma): > 100 µM
TGI (UACC-62 melanoma): > 100 µM
TGI (HT29 colon): > 100 µM

OCCN1CCN(CCCN2c3ccccc3Sc3ccc(Cl)cc32)CC1
GI50 (HCC-2998 colon): 1.5 µM
TGI (HCC-2998 colon): 2.98 µM
GI50 (A498 renal): 1.56 µM
TGI (A498 renal): 5.87 µM
GI50 (TK-10 renal): 1.65 µM
TGI (TK-10 renal): 3.08 µM
GI50 (COLO 205 colon): 1.61 µM
TGI (COLO 205 colon): 3 µM
GI50 (M14 melanoma): 1.88 µM
TGI (M14 melanoma): 3.6 µM
GI50 (HS 578T breast): 1.98 µM
TGI (HS 578T breast): 5.71 µM
GI50 (UACC-62 melanoma): 1.76 µM
TGI (UACC-62 melanoma): 3.29 µM
GI50 (HOP-62 NSCLC): 3.02 µM
TGI (HOP-62 NSCLC): 12.7 µM
GI50 (HT29 colon): 1.73 µM
TGI (HT29 colon): 3.42 µM

Cc1nc(-n2nc(-c3ccccc3)cc2-c2ccccc2)sc1C(=O)/C=C/c1ccc(/C=C/C(=O)c2sc(-n3nc(-c4ccccc4)cc3-c3ccccc3)nc2C)cc1
TGI (HCC-2998 colon): 39.3 µM
TGI (SR leukemia): 72.4 µM
TGI (TK-10 renal): 87.6 µM
TGI (COLO 205 colon): 39.1 µM
TGI (M14 melanoma): 36.7 µM
TGI (HOP-62 NSCLC): 54.2 µM
TGI (HT29 colon): 44.8 µM

O=C(NCCCCCCCCCCCCNC(=O)c1cccc2ccccc12)c1cccc2ccccc12
TGI (HCC-2998 colon): > 100 µM
TGI (SR leukemia): > 100 µM
TGI (A498 renal): > 74.4 µM
TGI (TK-10 renal): > 87.1 µM
TGI (COLO 205 colon): > 100 µM
TGI (M14 melanoma): > 100 µM
TGI (UACC-62 melanoma): > 100 µM
TGI (HOP-62 NSCLC): 30.4 µM
TGI (HT29 colon): > 100 µM

COC(=O)C(C(=O)C(=O)Nc1c(C)cccc1C)c1cnc2ccccc2n1 (stereo not drawn)
TGI (HCC-2998 colon): > 100 µM
TGI (SR leukemia): > 100 µM
TGI (A498 renal): > 100 µM
TGI (TK-10 renal): > 100 µM
TGI (COLO 205 colon): > 100 µM
TGI (M14 melanoma): > 100 µM
TGI (UACC-62 melanoma): > 100 µM
TGI (HT29 colon): > 100 µM

COC(=O)CC(NC(=O)OCc1ccccc1)C(C(C)=O)C(=O)OCc1ccccc1 (stereo not drawn)
TGI (SR leukemia): > 100 µM
TGI (A498 renal): > 31.6 µM
TGI (TK-10 renal): > 31.6 µM
TGI (COLO 205 colon): > 31.6 µM
TGI (M14 melanoma): > 31.6 µM
TGI (UACC-62 melanoma): > 31.6 µM

c1cc(NNc2cccc(-c3nn[nH]n3)c2)cc(-c2nn[nH]n2)c1
TGI (A498 renal): > 100 µM
TGI (TK-10 renal): > 100 µM
TGI (COLO 205 colon): > 100 µM
TGI (M14 melanoma): > 100 µM
TGI (HS 578T breast): > 100 µM
TGI (UACC-62 melanoma): > 100 µM
TGI (HOP-62 NSCLC): > 100 µM
TGI (HT29 colon): > 100 µM

O=C(CC(Cl)=C(Cl)Cl)Nc1ccccc1
GI50 (A498 renal): > 100 µM
TGI (A498 renal): > 100 µM
GI50 (TK-10 renal): > 100 µM
TGI (TK-10 renal): > 100 µM
GI50 (COLO 205 colon): > 100 µM
TGI (COLO 205 colon): > 100 µM
GI50 (M14 melanoma): > 100 µM
TGI (M14 melanoma): > 100 µM
GI50 (HS 578T breast): > 100 µM
TGI (HS 578T breast): > 100 µM
GI50 (UACC-62 melanoma): > 100 µM
TGI (UACC-62 melanoma): > 100 µM
GI50 (HOP-62 NSCLC): > 100 µM
TGI (HOP-62 NSCLC): > 100 µM
GI50 (HT29 colon): > 100 µM
TGI (HT29 colon): > 100 µM

N.N.N.N.N.[Co+3].[I-].[N-]=[N+]=[N-]
GI50 (HCC-2998 colon): > 100 µM
TGI (HCC-2998 colon): > 100 µM
GI50 (A498 renal): > 100 µM
TGI (A498 renal): > 100 µM
GI50 (TK-10 renal): > 100 µM
TGI (TK-10 renal): > 100 µM
GI50 (COLO 205 colon): > 100 µM
TGI (COLO 205 colon): > 100 µM
GI50 (M14 melanoma): > 100 µM
TGI (M14 melanoma): > 100 µM
GI50 (UACC-62 melanoma): 89.7 µM
TGI (UACC-62 melanoma): > 100 µM
GI50 (HOP-62 NSCLC): > 100 µM
TGI (HOP-62 NSCLC): > 100 µM
GI50 (HT29 colon): > 100 µM
TGI (HT29 colon): > 100 µM

O=C1C2Nc3ccccc3SC2C(=O)N1c1ccc(Br)cc1 (stereo not drawn)
TGI (HCC-2998 colon): > 100 µM
TGI (A498 renal): 82.5 µM
TGI (TK-10 renal): > 100 µM
TGI (COLO 205 colon): > 100 µM
TGI (M14 melanoma): > 100 µM
TGI (UACC-62 melanoma): > 100 µM
TGI (HOP-62 NSCLC): 55.1 µM
TGI (HT29 colon): > 100 µM
